Key:
PaD2HGDH = molecular target: T1, PaD2HGDH (Pseudomonas aeruginosa, UniProt Q9I6H4); assay: PMS-driven oxygen consumption, initial rates, steady-state inhibition; assay type: biochemical; conditions: read-out: Kis
T1 construct: gene PA0317; full-length wild type, C-terminal 6x-His tag kept, pET20b(+), expressed in E. coli Rosetta(DE3)pLysS, Ni-NTA purified
T1 sequence (Q9I6H4 1-464): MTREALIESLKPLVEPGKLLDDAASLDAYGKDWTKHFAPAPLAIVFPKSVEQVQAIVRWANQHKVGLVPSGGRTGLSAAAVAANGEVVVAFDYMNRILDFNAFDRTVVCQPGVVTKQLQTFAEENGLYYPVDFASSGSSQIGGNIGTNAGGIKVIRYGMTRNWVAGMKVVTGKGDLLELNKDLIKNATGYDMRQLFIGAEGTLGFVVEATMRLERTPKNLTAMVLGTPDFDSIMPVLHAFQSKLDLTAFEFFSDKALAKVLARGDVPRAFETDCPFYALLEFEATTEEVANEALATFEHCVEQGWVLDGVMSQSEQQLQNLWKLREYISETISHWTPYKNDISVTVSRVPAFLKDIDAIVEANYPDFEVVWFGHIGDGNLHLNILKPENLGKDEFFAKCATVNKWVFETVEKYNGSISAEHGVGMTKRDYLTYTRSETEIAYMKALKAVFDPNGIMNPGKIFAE
Source text: PMS-driven oxygen consumption, initial rates, steady-state inhibition on PaD2HGDH

[1] = substrate: O=C(O)C[C@@H](O)C(=O)O; assay: PMS-driven oxygen consumption, initial rates, global fit of inhibition data; assay type: biochemical, Pseudomonas aeruginosa; conditions: fitted in the oxaloacetate inhibition assay (Ka extrapolated to no inhibitor), D-malate 1-60 mM, 1 mM PMS, 25 mM NaPO4 pH 7.4, 25 °C
Source text: PMS-driven oxygen consumption, initial rates, global fit of inhibition data on PaD2HGDH

Question: How did the Ki (PaD2HGDH) turn out when O=C(O)CC[C@H](O)C(=O)O [L-2-Hydroxyglutarate] was run?
Answer: Its Ki is 4.1 ± 0.4 mM.

Question: How did the Ki (PaD2HGDH) turn out when O=C(O)CC(C(=O)O)C(O)C(=O)O (racemic) [D/L-Isocitrate] was run?
Answer: Its Ki is 7.8 ± 0.4 mM.

Question: How did the Ki (PaD2HGDH) turn out when O=C(O)C[C@H](O)C(=O)O [L-Malate] was run?
Answer: Its Ki is 14.6 ± 1.5 mM.

Question: O=C(O)CC(=O)C(=O)O [Oxaloacetate] was tested. Which Ki (PaD2HGDH) did it give?
Answer: Its Ki is 2.02 ± 0.03 mM.

Question: For O=C(O)[C@H](O)c1ccccc1 [D-Mandelate], which Ki (PaD2HGDH) is on record?
Answer: Its Ki is 18.4 ± 0.6 mM.

Question: For O=C(O)CCC(=O)C(=O)O [2-Ketoglutarate], which Ki (PaD2HGDH) is on record?
Answer: The Ki was 4.3 ± 0.3 mM.

Question: With O=C(O)C(O)c1ccc(O)cc1 (racemic) [D/L-4-Hydroxymandelate] as the molecule, how does the Ki (PaD2HGDH) read?
Answer: Its Ki is 6.5 ± 0.7 mM.

Question: For O=C(O)C(O)c1ccc(O)c(O)c1 (racemic) [D/L-3,4-Dihydroxymandelate], which Ki (PaD2HGDH) is on record?
Answer: The Ki was 4.1 ± 0.3 mM.

Question: For O=C(O)C(O)C(=O)O [Tartronate], which Ki (PaD2HGDH) is on record?
Answer: Its Ki is 18.6 ± 1.3 mM.

B1: PaD2HGDH (Pseudomonas aeruginosa PAO1) (protein)
chain: MTREALIESLKPLVEPGKLLDDAASLDAYGKDWTKHFAPAPLAIVFPKSVEQVQAIVRWANQHKVGLVPSGGRTGLSAAAVAANGEVVVAFDYMNRILDFNAFDRTVVCQPGVVTKQLQTFAEENGLYYPVDFASSGSSQIGGNIGTNAGGIKVIRYGMTRNWVAGMKVVTGKGDLLELNKDLIKNATGYDMRQLFIGAEGTLGFVVEATMRLERTPKNLTAMVLGTPDFDSIMPVLHAFQSKLDLTAFEFFSDKALAKVLARGDVPRAFETDCPFYALLEFEATTEEVANEALATFEHCVEQGWVLDGVMSQSEQQLQNLWKLREYISETISHWTPYKNDISVTVSRVPAFLKDIDAIVEANYPDFEVVWFGHIGDGNLHLNILKPENLGKDEFFAKCATVNKWVFETVEKYNGSISAEHGVGMTKRDYLTYTRSETEIAYMKALKAVFDPNGIMNPGKIFAE
notes: full-length wild type, C-terminal 6x-His tag kept, pET20b(+), expressed in E. coli Rosetta(DE3)pLysS, Ni-NTA purified
Question: Which results are given for B1?
Answer: Km [1]: 8.4 ± 0.1 mM; kcat [1]: 29.1 ± 0.1 s⁻¹
